From US12077503B2, “Substituted cyclic amides and their use as herbicides” (FMC CORPORATION, priority 2015, dated 2024)

Assays:
Type in all cases: in vivo
[1] = system: velvetleaf (Abutilon theophrasti); assay: Test G Post-Emergence Protocol; settings: Abutilon theophrasti, post-emergence, 312 h, read-out: Velvetleaf damage rating
Summary of the method: (§1)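 Seedlings grown 8 days in soil in a glasshouse (24/16 °C day/night, 14 h light, 65% humidity) were sprayed post-emergence with compound in acetone/water 50:50 plus 0.5% Tween 20 at 15.625, 62.5 or 250 g/ha. Damage was scored after 13 days on a 0–100 scale (100 = total damage).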

[2] = system: giant foxtail (Setaria faberi); assay: Test G Post-Emergence Protocol; settings: Setaria faberi, post-emergence, 312 h, read-out: Foxtail, Giant damage rating
Summary of the method: as §1

corn (Zea mays) [3] = assay: Test G Post-Emergence Protocol; settings: Zea mays, post-emergence, 312 h, read-out: Corn damage rating
Summary of the method: as §1

[4] = system: ivy-leaved morning glory (Ipomoea hederacea); assay: Test G Post-Emergence Protocol; settings: Ipomoea, post-emergence, 312 h, read-out: Morningglory, Ivy-leaved damage rating
Summary of the method: as §1

[5] = system: barnyardgrass (Echinochloa crus-galli); assay: Test G Post-Emergence Protocol; settings: Echinochloa crus-galli, post-emergence, 312 h, read-out: Barnyardgrass damage rating
Summary of the method: as §1

[6] = system: redroot pigweed (Amaranthus retroflexus); assay: Test G Post-Emergence Protocol; settings: Amaranthus retroflexus, post-emergence, 312 h, read-out: Pigweed, Redroot damage rating
Summary of the method: as §1

[7] = system: velvetleaf (Abutilon theophrasti); assay: Test G Pre-Emergence Protocol; settings: Abutilon theophrasti, pre-emergence, 312 h, evaluated after 13 days
Summary of the method: (§2)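 Spraying took place one day after sowing, at 15.625, 62.5 or 250 g/ha, using an acetone/water (50:50) spray solution containing 0.5% Tween 20. Plants were kept under glasshouse conditions (24/16 °C, 14 h light, 65% humidity, watered twice daily), and injury was rated 0–100 at day 13.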

[8] = system: giant foxtail (Setaria faberi); assay: Test G Pre-Emergence Protocol; settings: Setaria faberi, pre-emergence, 312 h, evaluated after 13 days
Summary of the method: as §2

corn (Zea mays) [9] = assay: Test G Pre-Emergence Protocol; settings: Zea mays, pre-emergence, 312 h, evaluated after 13 days
Summary of the method: as §2

[10] = system: ivy-leaved morning glory (Ipomoea hederacea); assay: Test G Pre-Emergence Protocol; settings: Ipomoea, pre-emergence, 312 h, evaluated after 13 days
Summary of the method: as §2

[11] = system: barnyardgrass (Echinochloa crus-galli); assay: Test G Pre-Emergence Protocol; settings: Echinochloa crus-galli, pre-emergence, 312 h, evaluated after 13 days
Summary of the method: as §2

[12] = system: redroot pigweed (Amaranthus retroflexus); assay: Test G Pre-Emergence Protocol; settings: Amaranthus retroflexus, pre-emergence, 312 h, evaluated after 13 days
Summary of the method: as §2

[13] = 15.625 g ai/ha, evaluated after 13 days (100=total damage to plant; 0=no damage to plant)
[14] = 62.5 g ai/ha, evaluated after 13 days, 100=total damage to plant, 0=no damage to plant
[15] = 250 g ai/ha, evaluated after 13 days, 100=total damage to plant, 0=no damage to plant

Which results are given for `CN1C[C@H](c2cccc(C(F)(F)F)c2)[C@@H](C(=O)Nc2cccc3c2S(=O)(=O)CC3)C1=O` (racemic) [Compound 1738]?
pest or weed control at 15.625 g/ha [1, 13]: 0%; pest or weed control at 62.5 g/ha [1, 14]: 10%; pest or weed control at 250 g/ha [1, 15]: 10%; pest or weed control at 15.625 g/ha [2, 13]: 20%; pest or weed control at 62.5 g/ha [2, 14]: 40%; pest or weed control at 250 g/ha [2, 15]: 70%; plant injury at 15.625 g/ha (corn (Zea mays) [3]; [13]): 0%; plant injury at 62.5 g/ha (corn (Zea mays) [3]; [14]): 0%; plant injury at 250 g/ha (corn (Zea mays) [3]; [15]): 0%; pest or weed control at 15.625 g/ha [4, 13]: 0%; pest or weed control at 62.5 g/ha [4, 14]: 0%; pest or weed control at 250 g/ha [4, 15]: 0%; pest or weed control at 15.625 g/ha [5, 13]: 0%; pest or weed control at 62.5 g/ha [5, 14]: 40%; pest or weed control at 250 g/ha [5, 15]: 80%; pest or weed control at 15.625 g/ha [6, 13]: 20%; pest or weed control at 62.5 g/ha [6, 14]: 10%; pest or weed control at 250 g/ha [6, 15]: 10%; pest or weed control at 15.625 g/ha ([7]; 15.625 g ai/ha, read-out: Velvetleaf damage rating (100=total damage to plant; 0=no damage to plant)): 0%; pest or weed control at 62.5 g/ha ([7]; 62.5 g ai/ha, 100=total damage to plant, 0=no damage to plant, read-out: Velvetleaf damage rating): 0%; pest or weed control at 250 g/ha ([7]; 250 g ai/ha, read-out: Velvetleaf damage rating (100=total damage to plant; 0=no damage to plant)): 0%; pest or weed control at 15.625 g/ha ([8]; 15.625 g ai/ha, read-out: Foxtail, Giant damage rating (100=total damage to plant; 0=no damage to plant)): 0%; pest or weed control at 62.5 g/ha ([8]; 62.5 g ai/ha, 100=total damage to plant, 0=no damage to plant, read-out: Foxtail, Giant damage rating): 0%; pest or weed control at 250 g/ha ([8]; 250 g ai/ha, read-out: Foxtail, Giant damage rating (100=total damage to plant; 0=no damage to plant)): 70%; plant injury at 15.625 g/ha (corn (Zea mays) [9]; 15.625 g ai/ha, read-out: Corn damage rating (100=total damage to plant; 0=no damage to plant)): 0%; plant injury at 62.5 g/ha (corn (Zea mays) [9]; 62.5 g ai/ha, 100=total damage to plant, 0=no damage to plant, read-out: Corn damage rating): 0%; plant injury at 250 g/ha (corn (Zea mays) [9]; 250 g ai/ha, read-out: Corn damage rating (100=total damage to plant; 0=no damage to plant)): 0%; pest or weed control at 15.625 g/ha ([10]; 15.625 g ai/ha, read-out: Morningglory, Ivy-leaved damage rating (100=total damage to plant; 0=no damage to plant)): 0%; pest or weed control at 62.5 g/ha ([10]; 62.5 g ai/ha, 100=total damage to plant, 0=no damage to plant, read-out: Morningglory, Ivy-leaved damage rating): 0%; pest or weed control at 250 g/ha ([10]; 250 g ai/ha, read-out: Morningglory, Ivy-leaved damage rating (100=total damage to plant; 0=no damage to plant)): 0%; pest or weed control at 15.625 g/ha ([11]; 15.625 g ai/ha, read-out: Barnyardgrass damage rating (100=total damage to plant; 0=no damage to plant)): 0%; pest or weed control at 62.5 g/ha ([11]; 62.5 g ai/ha, 100=total damage to plant, 0=no damage to plant, read-out: Barnyardgrass damage rating): 0%; pest or weed control at 250 g/ha ([11]; 250 g ai/ha, read-out: Barnyardgrass damage rating (100=total damage to plant; 0=no damage to plant)): 70%; pest or weed control at 15.625 g/ha ([12]; 15.625 g ai/ha, read-out: Pigweed, Redroot damage rating (100=total damage to plant; 0=no damage to plant)): 0%; pest or weed control at 62.5 g/ha ([12]; 62.5 g ai/ha, 100=total damage to plant, 0=no damage to plant, read-out: Pigweed, Redroot damage rating): 0%; pest or weed control at 250 g/ha ([12]; 250 g ai/ha, read-out: Pigweed, Redroot damage rating (100=total damage to plant; 0=no damage to plant)): 0%
